Laboratory results: publication PMC12089509, “NorA Efflux Pump Inhibitors: Expanding SAR Knowledge of Pyrazolo[4,3‐c][1,2]benzothiazine 5,5‐Dioxide Derivatives” (Archiv Der Pharmazie, 2025)
Values after ≈ are worked out from the molar mass of the structure shown. Like-named read-outs stand apart in the source and are kept apart here.

Columns and labels:
[1] = tested on: Staphylococcus aureus SA-1199B; assay: MIC determination (broth microdilution) against SA-1199B; type: cell-based; conditions: SA1199B
From the text: (§1) In this study, the S. aureus strains SA‐1199B (overexpressing norA) and its isogenic parent SA‐1199 (wild type), the pair SA‐K1902 (norA‐depleted) and SA‐K2378 (complemented with a pCU1 plasmid harboring the norA promoting and coding region from SA‐1199B), were used to test EPI activity as described in a previous study. Furthermore, the S. aureus ATCC 29213 was used as the reference strain in MIC determination experiments.

[2] = tested on: S. aureus SA-1199 (wild type); assay: MIC determination against wild-type SA-1199; type: cell-based; conditions: Staphylococcus aureus, compound alone
From the text: (§2) This finding aligns with their mechanism of action, which involves the inhibition of NorA, which is only basally expressed in the wild‐type SA‐1199 strain.

[3] = tested on: S. aureus SA-K2378 (norA ++); assay: Checkerboard assay EPI/CPX against SA-K2378; type: cell-based, Staphylococcus aureus
Experimental: (§3) Conversely, interesting results were obtained against SA‐K2378, which overexpresses the norA gene (Table 2). […] This corroborates the hypothesis that their activity is strictly related to NorA EP inhibition.
Checkerboard assays were carried out using SA‐K1902 and SA‐K2378 strains according to standard procedures.

[4] = tested on: S. aureus SA-K1902 (norA-); assay: MIC evaluation against SA-K1902; type: cell-based, Staphylococcus aureus; conditions: Staphylococcus aureus
From the text: as §3, §1

[5] = MTT cytotoxicity assay on MCF7; type: cell-based; conditions: human, MCF7 cells; for viability at 72 h, 12.5 µg/mL: MCF7, 12.5 μg/mL; for viability at 72 h, 12.5 µg/mL / viability at 72 h, 25 µg/mL / viability at 72 h, 50 µg/mL / viability at 72 h, 100 µg/mL: read-out: Cytotoxicity (% cell viability); for viability at 72 h, 25 µg/mL: MCF7, 25 μg/mL; for viability at 72 h, 50 µg/mL: MCF7, 50 μg/mL; for viability at 72 h, 100 µg/mL: MCF7, 100 μg/mL; for CC50 at 72 h: MCF7, MTT
Experimental: The MTT assay was performed on two human ATCC cell lines, that is, […] (CCL‐185) and MCF7 (HTB‐22), to test the potential cytotoxic effect of the compounds, after 72 h exposure, as previously described. Each compound was tested at concentrations ranging from 12.5 to 100 μg/mL. Untreated cells were considered as controls. The percentage of viable cells was calculated as follows: % Cell viability = 100 × treated well absorbance/untreated control well absorbance. All assays were performed once in technical quadruplicate.

[6] = tested on: S. aureus SA-K2378 (norA ++); assay: MIC evaluation against SA-K2378; type: cell-based, Staphylococcus aureus; conditions: Staphylococcus aureus
From the text: as §3, §1

[7] = tested on: S. aureus SA-1199 (wild type); assay: Synergistic assay with CPX against wild-type SA-1199; type: cell-based, Staphylococcus aureus; conditions: EPI at 3.13 µg/mL with CPX
From the text: as §2

[8] = tested on: Staphylococcus aureus SA-K2378 biofilm; type: cell-based; conditions: for Biofilm formation (%): CPX 1/4 X MIC + EPI 1,6 µg/ml; for reduction in biofilm formation: EPI at 1.6 µg/mL with CPX at ½ MIC, vs untreated control
From the text: The formation of biofilms is a significant contributor to the development of AMR [1, 26, 27]. This is due to the fact that biofilms provide a protective environment for bacteria, thereby rendering them more resilient to the effects of common antibacterial agents. Over the years, several investigations have been conducted to study the role of EPs in the various stages of microbial biofilm formation. However, a definitive answer regarding the potential role of EPs in this microbial pathway remains elusive. While some studies have reported a negative effect of certain EPs on biofilm formation, others have highlighted the promising role of EPIs in limiting biofilm formation and enhancing the efficacy of antibiotics under biofilm conditions.
The biofilm production by SA‐K1902 and SA‐K2378 strains was analyzed in flat 96‐well microtiter plates as previously described, with some modifications. […] The microplates were incubated at 37°C for 24 h in static conditions. After incubation, the biofilms were washed three times with distilled water, dried at 60°C for 1 h, and stained with 0,1% crystal violet for 10 min. After staining, the crystal violet was removed and the wells were washed three times with water, dried at 37°C for 30 min, and the bound crystal violet was solubilized with 96% ethanol in shaking conditions. At the end of the destaining, the absorbance (570 nm) of the solutions in each well was measured using the FLUOstar Omega plate reader (BMG‐LABTECH, Germany) to quantify the biofilm produced in each condition compared with the control (biofilm produced by the strain without any compound/antibiotic). Biofilm assays were performed in triplicate for each condition.

[9] = tested on: Staphylococcus aureus SA-1199B; type: cell-based
From the text: For purposes of comparison, compound 1 was included as a reference.

## O=S1(=O)Nc2c(-c3ccc(Cl)cc3)nn(-c3ccccc3)c2-c2ccccc21 [Compound 3]
[1]
  MIC: 25 µg/mL (≈ 61.3 µM)
[2]
  MIC: > 50 µg/mL
[3]; EPI at 0.2 µg/mL
  CPX MIC: 0.6 µg/mL
  N° CPX MIC reduction: 2
[3]; EPI at 0.4 µg/mL
  CPX MIC: 0.6 µg/mL
  N° CPX MIC reduction: 2
[3]; EPI at 0.8 µg/mL
  CPX MIC: 0.3 µg/mL
  N° CPX MIC reduction: 4
[3]; EPI at 1.6 µg/mL
  CPX MIC: 0.16 µg/mL
  N° CPX MIC reduction: 8
[3]; EPI at 3.13 µg/mL
  CPX MIC: 0.16 µg/mL
  N° CPX MIC reduction: 8
[3]; EPI at 6.25 µg/mL
  CPX MIC: 0.08 µg/mL
  N° CPX MIC reduction: 16
[4]
  MIC: > 50 µg/mL
[5]
  viability at 72 h, 12.5 µg/mL: 97 ± 10%
  viability at 72 h, 25 µg/mL: 84 ± 4%
  viability at 72 h, 50 µg/mL: 88 ± 4%
  viability at 72 h, 100 µg/mL: 66 ± 7%
  CC50 at 72 h: > 100 µg/mL
[6]
  MIC: 25 µg/mL (≈ 61.3 µM)
[7]
  synergistic effect with CPX: did not show any synergistic effect
[8]
  Biofilm formation (%): positive synergistic effect
  reduction in biofilm formation: 83%
[9]; EPI at 3.12 µg/mL
  N° fold CPX MIC reduction: 2 fold

## CN1c2c(-c3ccc(Cl)cc3)n[nH]c2-c2ccccc2S1(=O)=O [Compound 10, 3‐(4‐Chlorophenyl)‐4‐methyl‐1,4‐dihydropyrazolo[4,3‐c][1,2]benzothiazine 5,5‐dioxide]
[1]
  MIC: > 50 µg/mL
[2]
  MIC: > 50 µg/mL
[3]; EPI at 0.2 µg/mL
  CPX MIC: 0.6 µg/mL
  N° CPX MIC reduction: 2
[3]; EPI at 0.4 µg/mL
  CPX MIC: 0.6 µg/mL
  N° CPX MIC reduction: 2
[3]; EPI at 0.8 µg/mL
  CPX MIC: 0.3 µg/mL
  N° CPX MIC reduction: 4
[3]; EPI at 1.6 µg/mL
  CPX MIC: 0.16 µg/mL
  N° CPX MIC reduction: 8
[3]; EPI at 3.13 µg/mL
  CPX MIC: 0.08 µg/mL
  N° CPX MIC reduction: 16
[4]
  MIC: 12.5 µg/mL (≈ 36.1 µM)
[5]
  viability at 72 h, 12.5 µg/mL: 66 ± 5%
  viability at 72 h, 25 µg/mL: 26 ± 2%
  viability at 72 h, 50 µg/mL: 7 ± 1%
  viability at 72 h, 100 µg/mL: 6%
  CC50 at 72 h: ~25 µg/mL (≈ 72.3 µM)
[6]
  MIC: 12.5 µg/mL (≈ 36.1 µM)
[7]
  synergistic effect with CPX: did not show any synergistic effect
[8]
  Biofilm formation (%): untreated control‐like condition
  reduction in biofilm formation: 54%
[9]; EPI at 12.5 µg/mL
  N° fold CPX MIC reduction: 4 fold
